From PubChem BioAssay AID2060512 (Molecular Pharmacology Branch, DTP, NCI, 2025)

Test system: 186277-243-T-J2-PDC complex spheroid viability
Assay: Anticancer human tumor 186277-243-T-J2-PDC patient-derived colon adenocarcinoma cell line growth inhibition [GQUAD]
Conditions: for IC50: curve of first compound; for viability, T/C: stronger effect = lower value
Procedure, shortened: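 Tumor cells were grown as complex spheroids with HUVEC endothelial cells and mesenchymal stem cells as stroma. G-quadruplex stabilizers were combined with targeted agents over half-log dilutions from near the clinical Cmax, or from 10 microM.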

[1] = second compound 0.0316 µM, first compound 0.0316 µM
[2] = second compound 0.0316 µM, first compound 0.316 µM
[3] = second compound 0.1 µM, first compound 0.0316 µM
[4] = second compound 0.1 µM, first compound 0.316 µM
[5] = second compound 0.316 µM, first compound 0.0316 µM
[6] = second compound 0.316 µM, first compound 0.316 µM
[7] = second compound 1 µM, first compound 0.0316 µM
[8] = second compound 1 µM, first compound 0.316 µM
[9] = second compound 3.16 µM, first compound 0.0316 µM
[10] = second compound 3.16 µM, first compound 0.316 µM
[11] = second compound 10 µM, first compound 0.0316 µM
[12] = second compound 10 µM, first compound 0.316 µM
[13] = second compound 0.0316 µM, first compound 0.000999 µM
[14] = second compound 0.0316 µM, first compound 0.00316 µM
[15] = second compound 0.0316 µM, first compound 0.00999 µM
[16] = second compound 0.0316 µM, first compound 0.0999 µM
[17] = second compound 0.1 µM, first compound 0.000999 µM
[18] = second compound 0.1 µM, first compound 0.00316 µM
[19] = second compound 0.1 µM, first compound 0.00999 µM
[20] = second compound 0.1 µM, first compound 0.0999 µM
[21] = second compound 0.316 µM, first compound 0.000999 µM
[22] = second compound 0.316 µM, first compound 0.00316 µM
[23] = second compound 0.316 µM, first compound 0.00999 µM
[24] = second compound 0.316 µM, first compound 0.0999 µM
[25] = second compound 1 µM, first compound 0.000999 µM
[26] = second compound 1 µM, first compound 0.00316 µM
[27] = second compound 1 µM, first compound 0.00999 µM
[28] = second compound 1 µM, first compound 0.0999 µM
[29] = second compound 3.16 µM, first compound 0.000999 µM
[30] = second compound 3.16 µM, first compound 0.00316 µM
[31] = second compound 3.16 µM, first compound 0.00999 µM
[32] = second compound 3.16 µM, first compound 0.0999 µM
[33] = second compound 10 µM, first compound 0.000999 µM
[34] = second compound 10 µM, first compound 0.00316 µM
[35] = second compound 10 µM, first compound 0.00999 µM
[36] = second compound 10 µM, first compound 0.0999 µM
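Note: spheroids exposed to drugs for 7 days.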
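Throughout, for viability, T/C: 100% = DMSO vehicle control viability.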

Structure (SMILES): C=CC(=O)N1CCN(c2nc(=O)n(-c3c(C)ccnc3C(C)C)c3nc(-c4c(O)cccc4F)c(F)cc23)C(C)C1 (stereo unspecified) + CN(C)c1ccc(Nc2c3ccc(NC(=O)CCN4CCCC4)cc3nc3cc(NC(=O)CCN4CCCC4)ccc23)cc1
- IC50 (second compound 0.0316 µM): > 10 µM
- IC50 (second compound 0.1 µM): > 10 µM
- IC50 (second compound 0.316 µM): > 10 µM
- IC50 (second compound 1 µM): > 10 µM
- IC50 (second compound 3.16 µM): > 10 µM
- IC50 (second compound 10 µM): > 10 µM
- viability, T/C [1]: 105%
- viability, T/C (second compound 0.0316 µM, first compound 0.1 µM): 85.5%
- viability, T/C [2]: 90.1%
- viability, T/C (second compound 0.0316 µM, first compound 1 µM): 81.7%
- viability, T/C (second compound 0.0316 µM, first compound 3.16 µM): 104%
- viability, T/C (second compound 0.0316 µM, first compound 10 µM): 96.6%
- viability, T/C [3]: 111%
- viability, T/C (second compound 0.1 µM, first compound 0.1 µM): 96.1%
- viability, T/C [4]: 101%
- viability, T/C (second compound 0.1 µM, first compound 1 µM): 71.9%
- viability, T/C (second compound 0.1 µM, first compound 3.16 µM): 111%
- viability, T/C (second compound 0.1 µM, first compound 10 µM): 88.3%
- viability, T/C [5]: 104%
- viability, T/C (second compound 0.316 µM, first compound 0.1 µM): 94.6%
- viability, T/C [6]: 87.3%
- viability, T/C (second compound 0.316 µM, first compound 1 µM): 90.5%
- viability, T/C (second compound 0.316 µM, first compound 3.16 µM): 92.6%
- viability, T/C (second compound 0.316 µM, first compound 10 µM): 95.2%
- viability, T/C [7]: 93.9%
- viability, T/C (second compound 1 µM, first compound 0.1 µM): 89.8%
- viability, T/C [8]: 88.4%
- viability, T/C (second compound 1 µM, first compound 1 µM): 101%
- viability, T/C (second compound 1 µM, first compound 3.16 µM): 105%
- viability, T/C (second compound 1 µM, first compound 10 µM): 97.3%
- viability, T/C [9]: 95.3%
- viability, T/C (second compound 3.16 µM, first compound 0.1 µM): 87.2%
- viability, T/C [10]: 97.6%
- viability, T/C (second compound 3.16 µM, first compound 1 µM): 89.8%
- viability, T/C (second compound 3.16 µM, first compound 3.16 µM): 101%
- viability, T/C (second compound 3.16 µM, first compound 10 µM): 95.3%
- viability, T/C [11]: 91.7%
- viability, T/C (second compound 10 µM, first compound 0.1 µM): 80.2%
- viability, T/C [12]: 98.4%
- viability, T/C (second compound 10 µM, first compound 1 µM): 96%
- viability, T/C (second compound 10 µM, first compound 3.16 µM): 111%
- viability, T/C (second compound 10 µM, first compound 10 µM): 88.1%

Structure (SMILES): CC[C@@]1(O)C(=O)OCc2c1cc1n(c2=O)Cc2cc3c(CN(C)C)c(O)ccc3nc2-1 + CN(C)c1ccc(Nc2c3ccc(NC(=O)CCN4CCCC4)cc3nc3cc(NC(=O)CCN4CCCC4)ccc23)cc1
- IC50 (second compound 0.0316 µM): > 0.316 µM
- IC50 (second compound 0.1 µM): 0.153 µM
- IC50 (second compound 0.316 µM): 0.178 µM
- IC50 (second compound 1 µM): 0.206 µM
- IC50 (second compound 3.16 µM): 0.209 µM
- IC50 (second compound 10 µM): 0.252 µM
- viability, T/C [13]: 91.1%
- viability, T/C [14]: 115%
- viability, T/C [15]: 99.2%
- viability, T/C [1]: 88.3%
- viability, T/C [16]: 54.4%
- viability, T/C [2]: 50.1%
- viability, T/C [17]: 91.5%
- viability, T/C [18]: 104%
- viability, T/C [19]: 92.5%
- viability, T/C [3]: 70.9%
- viability, T/C [20]: 61.1%
- viability, T/C [4]: 36.9%
- viability, T/C [21]: 93.9%
- viability, T/C [22]: 102%
- viability, T/C [23]: 95.6%
- viability, T/C [5]: 81.4%
- viability, T/C [24]: 59.4%
- viability, T/C [6]: 41.2%
- viability, T/C [25]: 86.5%
- viability, T/C [26]: 81.7%
- viability, T/C [27]: 87.1%
- viability, T/C [7]: 72%
- viability, T/C [28]: 65.6%
- viability, T/C [8]: 41.2%
- viability, T/C [29]: 96.8%
- viability, T/C [30]: 99.5%
- viability, T/C [31]: 105%
- viability, T/C [9]: 74.4%
- viability, T/C [32]: 65.2%
- viability, T/C [10]: 42.5%
- viability, T/C [33]: 93.8%
- viability, T/C [34]: 85.7%
- viability, T/C [35]: 98%
- viability, T/C [11]: 85.1%
- viability, T/C [36]: 58.3%
- viability, T/C [12]: 47.9%

Structure (SMILES): CCc1c2c(nc3ccc(O)cc13)-c1cc3c(c(=O)n1C2)COC(=O)[C@]3(O)CC + CN(C)c1ccc(Nc2c3ccc(NC(=O)CCN4CCCC4)cc3nc3cc(NC(=O)CCN4CCCC4)ccc23)cc1
- IC50 (second compound 0.0316 µM): 0.0059 µM
- IC50 (second compound 0.1 µM): 0.00626 µM
- IC50 (second compound 0.316 µM): 0.00631 µM
- IC50 (second compound 1 µM): 0.00578 µM
- IC50 (second compound 3.16 µM): 0.00775 µM
- IC50 (second compound 10 µM): 0.0075 µM
- viability, T/C [13]: 97.1%
- viability, T/C [14]: 62.1%
- viability, T/C [15]: 40.6%
- viability, T/C [1]: 23.8%
- viability, T/C [16]: 17.1%
- viability, T/C [2]: 13.1%
- viability, T/C [17]: 99.8%
- viability, T/C [18]: 60.1%
- viability, T/C [19]: 44.3%
- viability, T/C [3]: 25.8%
- viability, T/C [20]: 15.8%
- viability, T/C [4]: 11.6%
- viability, T/C [21]: 107%
- viability, T/C [22]: 69%
- viability, T/C [23]: 36%
- viability, T/C [5]: 23.7%
- viability, T/C [24]: 15.7%
- viability, T/C [6]: 11.1%
- viability, T/C [25]: 82.9%
- viability, T/C [26]: 59.7%
- viability, T/C [27]: 41.6%
- viability, T/C [7]: 25.4%
- viability, T/C [28]: 15.8%
- viability, T/C [8]: 10.4%
- viability, T/C [29]: 92.8%
- viability, T/C [30]: 63.4%
- viability, T/C [31]: 49.4%
- viability, T/C [9]: 27.1%
- viability, T/C [32]: 16.3%
- viability, T/C [10]: 8.68%
- viability, T/C [33]: 83%
- viability, T/C [34]: 63.1%
- viability, T/C [35]: 45.5%
- viability, T/C [11]: 31.4%
- viability, T/C [36]: 16.4%
- viability, T/C [12]: 9.38%
